Six compounds from patent US20190038759A1 (priority 2017, published 2019) can be followed below.

In brackets after ≈: the same amount, converted by molar mass. Like-named read-outs stand apart in the source and are kept apart here. Non-standard residues stand in square brackets, D forms with d. Residues, ends and D or L forms follow the SMILES beside them. *: point of attachment. Propyl(3-guanidino) = N=C(N)NCCC*; Hyp = O=C(O)[C@@H]1C[C@@H](O)CN1; Isobutyl = CC(C)C*

Data set [1] concerns E. coli (ATCC 25922). The format is cell-based. Conditions: at five times MIC.
Data set [2] concerns C. elegans. Conditions: 50 μM.
Data set [3] relates to Colistin-resistant P. aeruginosa 1109. Kind of data set: microbe, parasite or virus in culture. The settings on record: Table 3, colistin-resistant P. aeruginosa 1109, read-out: Minimum inhibitory concentration (MIC). The format is cell-based.
Data set [4] has as its system LPS-induced activation of the LAL enzyme (Limulus amoebocyte lysate). Kind of data set: LPS binding: inhibition of LPS-induced activation of LAL enzyme. The format is biochemical. The settings on record: at 10 (unit not given).
The subject of data set [5] is interleukin-6 (IL-6). Kind of data set: Anti-inflammatory effect on LPS stimulated macrophages, ELISA. In kind it is cell-based. The settings on record: 10 μM, LPS 150 ng/ml, J774A.1, six hours. The procedure:
(§1) The anti-inflammatory effect of compounds on LPS stimulated macrophages, J774A.1 cells was investigated. Next, the cells were stimulated with LPS (150 ng/ml final concentration) in the presence of 10 μM of compounds. Cells that were stimulated with LPS alone and untreated cells served as controls. Cells were incubated for six hours at 37° C. and supernatants from each treatment were collected and stored at −20° C. until use. Cytokine detection of tumor necrosis factor-α (TNF-α) and interleukin-6 (IL-6) in supernatants was done using ELISA as described before following the manufacturer's instructions^24,25. Cytokine levels were expressed as percent change relative to the LPS-stimulated control, using triplicate samples for each treatment condition.
On the technique in general: ELISA stands for enzyme-linked immunosorbent assay.

The subject of data set [6] is tumor necrosis factor-α (TNF-α). Described as above. The settings on record: 10 μM, LPS 150 ng/ml, J774A.1, six hours. In kind it is cell-based. The protocol: as §1
For data set [7], the system named is S. aureus (ATCC 6538). Kind of data set: MIC, biofilm-forming clinical isolate, broth microdilution. Conditions: Staphylococcus aureus, ATCC6538. The format is cell-based. A general note: Dilution methods test growth across graded concentrations, often in twofold steps.
The subject of data set [8] is S. epidermidis (ATCC 35984). The description is as above. In kind it is cell-based. Conditions: Staphylococcus epidermidis, ATCC35984.
Data set [9] has as its system Methicillin-resistant S. aureus USA400. Briefly: MIC against clinical and drug-resistant isolates. In kind it is cell-based. The settings on record: Staphylococcus aureus; Table 3, MRSA USA400; read-out: Minimum inhibitory concentration (MIC).
Data set [10] has as its system P. aeruginosa PAO1. Kind of data set: MIC against clinical and drug-resistant isolates. The format is cell-based. The settings on record: Pseudomonas aeruginosa; Table 3, P. aeruginosa PAO1; read-out: Minimum inhibitory concentration (MIC).
Data set [11] concerns A. baumannii BAA-1605. Kind of data set: MIC against clinical and drug-resistant isolates. In kind it is cell-based. The settings on record: Acinetobacter baumannii, BAA1605; Table 3, A. baumannii BAA-1605; read-out: Minimum inhibitory concentration (MIC).
The subject of data set [12] is K. pneumoniae BAA-1706. Kind of data set: MIC against clinical and drug-resistant isolates. The format is cell-based. The settings on record: Klebsiella pneumoniae, BAA1706; Table 3, K. pneumoniae BAA-1706; read-out: Minimum inhibitory concentration (MIC).
Data set [13] has as its system Vancomycin-resistant E. faecium ATCC 700221. Briefly: MIC against clinical and drug-resistant isolates. In kind it is cell-based. Conditions: Enterococcus faecium, ATCC700221; Table 3, vancomycin-resistant E. faecium ATCC 700221; read-out: Minimum inhibitory concentration (MIC).
In data set [14] the test system is S. aureus (ATCC 6538) biofilm. Briefly: Disruption of established biofilms, crystal violet. In kind it is cell-based. The procedure:
(§2) The compounds of the present disclosure were examined for their ability to disrupt bacterial biofilms using the microtiter dish biofilm formation assay. Briefly, overnight cultures of S. aureus (ATCC 6538) and S. epidermidis (ATCC 35984) were diluted 1:100 in TSB supplemented with 1% glucose. Overnight cultures of P. aeruginosa PAO1 and A. baumannii ATCC BAA-1605 were diluted 1:100 in M63 minimal medium supplemented with magnesium sulfate, glucose and casamino acids. Bacterial suspensions were incubated in 96-well plates at 37° C. for 24 hours. After removing media, wells were rinsed with PBS to remove planktonic bacteria before re-filling wells with fresh media. Compounds were added at specific concentrations and plates were incubated at 37° C. for 24 hours. After incubation, wells were washed and biofilms were stained with 0.5% (w/v) crystal violet for 30 minutes. The dye was solubilized with ethanol (95%) and the biofilm mass was quantified at OD595. Experiments were done in triplicate and repeated twice independently.

The test system of data set [15] is Salmonella enteritidis. Kind of data set: microbe, parasite or virus in culture. The settings on record: Salmonella enterica.
Data set [16] deals with Brucella abortus. Briefly: microbe, parasite or virus in culture.
Data set [17] deals with Shigella flexneri. Kind of data set: microbe, parasite or virus in culture.
Data set [18] has as its system Mycobacterium smegmatis. Briefly: microbe, parasite or virus in culture. The settings on record: Mycolicibacterium smegmatis.
Data set [19] deals with Mycobacterium tuberculosis H37Ra. Kind of data set: microbe, parasite or virus in culture.
For data set [20], the system named is Escherichia coli (ATCC 25922). Briefly: In vitro antimicrobial activity (MIC), OD-based growth. The settings on record: ATCC25922.
For data set [21], the system named is Staphylococcus aureus (ATCC 25923). The data set is described as above. Conditions: ATCC25923.
Data set [22] concerns intracellular pathogens in J774A.1 cells. The format is cell-based. Conditions: infected J774A.1 macrophages.
Data set [23] relates to A. baumannii ATCC BAA-1605 biofilm. Briefly: Disruption of established biofilms, crystal violet. The format is cell-based. Conditions: 32 μM. The protocol:
as §2

For data set [24], the system named is P. aeruginosa PAO1 biofilm. Kind of data set: Disruption of established biofilms, crystal violet. The settings on record: 32 μM. The format is cell-based. The procedure:
as §2

Data set [25] deals with S. epidermidis ATCC 35984 biofilm. Kind of data set: Disruption of established biofilms, crystal violet. The settings on record: S. epidermidis mature biofilm, 64 μM. In kind it is cell-based. The procedure:
as §2

For data set [26], the system named is Salmonella enteritidis.
Data set [27] relates to Brucella abortus.
Data set [28] has as its system Shigella flexneri.
The subject of data set [29] is Mycobacterium smegmatis.
The test system of data set [30] is Mycobacterium tuberculosis H37Ra.
A short description of data set [31]: in vivo.

As to `CC[C@H](C)[C@H](NC(=O)CN)C(=O)NCC(=O)N[C@@H](C)C(=O)N[C@H](C(=O)N[C@@H](CC(C)C)C(=O)N[C@@H](CCCCN)C(=O)N[C@H](C(=O)N[C@@H](CC(C)C)C(=O)N[C@H](C(=O)N[C@H](C(=O)NCC(=O)N[C@@H](CC(C)C)C(=O)N1CCC[C@H]1C(=O)N[C@@H](C)C(=O)N[C@@H](CC(C)C)C(=O)N[C@H](C(=O)N[C@@H](CO)C(=O)N[C@@H](Cc1c[nH]c2ccccc12)C(=O)N[C@H](C(=O)N[C@@H](CCCCN)C(=O)N[C@@H](CCCNC(=N)N)C(=O)N[C@@H](CCCCN)C(=O)N[C@@H](CCCNC(=N)N)C(=O)N[C@@H](CCC(N)=O)C(=O)N[C@@H](CCC(N)=O)C(N)=O)[C@@H](C)CC)[C@@H](C)CC)[C@@H](C)O)[C@@H](C)O)C(C)C)C(C)C` [melittin], in data set [1], the “release of beta-galactosidase from E. coli” value is “substantial level of release”. The “viability of C. elegans” value in [2] (after 3 days of treatment) is given as “no live worms”.

For the compound colistin, the MIC in [3] was found to be 128 µM. For the same compound, the “inhibition of the LAL enzyme” value in [4] was 79.76%±4.6. The “decrease of IL-6 levels” value in data set [5] was 95.04%±0.56. Further, in [6], the “decrease of TNF-α levels” value is 97.53%±0.32.

In the case of `NC[C@H]1O[C@H](O[C@H]2[C@H](O)[C@@H](O[C@H]3O[C@H](CO)[C@@H](O)[C@H](N)[C@H]3O)[C@H](N)C[C@@H]2N)[C@H](O)[C@@H](O)[C@@H]1O` [kanamycin], the MIC was 4 µM (≈ 1.94 µg/mL) in data set [7] (Table 2, S. aureus clinical isolate that forms biofilms, read-out: MIC); 2 µM (≈ 0.969 µg/mL) in data set [7] (Table 3, S. aureus ATCC 6538, read-out: Minimum inhibitory concentration (MIC)); > 128 µM in [8] (Table 2, S. epidermis clinical isolate that forms biofilms, read-out: MIC); > 256 µM in data set [8] (Table 3, S. epidermidis ATCC 35984, read-out: Minimum inhibitory concentration (MIC)); 4 µM (≈ 1.94 µg/mL) in data set [9]; > 256 µM in [10]. For the same compound, the MIC was > 256 µM in data set [3] (Pseudomonas aeruginosa); 128 µM (≈ 62 µg/mL) in [11]; 256 µM (≈ 124 µg/mL) in [12]; > 256 µM in [13]; 16 µM (≈ 7.75 µg/mL) in [15]; 4 µM (≈ 1.94 µg/mL) in [16]. The MIC stood at 2 µM (≈ 0.969 µg/mL) in data set [17]; 8 µM (≈ 3.88 µg/mL) in data set [18]; 2 µM (≈ 0.969 µg/mL) in [19]; 2 µM (≈ 0.969 µg/mL) in data set [20]; 2 µM (≈ 0.969 µg/mL) in data set [21]. In data set [5], the “decrease of IL-6 levels” value is 10%±3.30. Moreover, the “decrease of TNF-α levels” value in data set [6] is listed as 11.41%±4.5. Besides, the “disruption of biofilm mass” value in [14] (S. aureus mature biofilm, 8 μM) is on record as “approximately 50%”. Further, the “viability of C. elegans” value in data set [2] (glp-4(bn2) I, sek-1(km4), Caenorhabditis elegans, in vivo, 3 days) is > 90%.

In the case of `CN[C@H](CC(C)C)C(=O)N[C@H]1C(=O)N[C@@H](CC(N)=O)C(=O)N[C@H]2C(=O)N[C@H]3C(=O)N[C@H](C(=O)N[C@H](C(=O)O)c4cc(O)cc(O)c4-c4cc3ccc4O)[C@H](O)c3ccc(c(Cl)c3)Oc3cc2cc(c3O[C@@H]2O[C@H](CO)[C@@H](O)[C@H](O)[C@H]2O[C@H]2C[C@](C)(N)[C@H](O)[C@H](C)O2)Oc2ccc(cc2Cl)[C@H]1O` [vancomycin], the “disruption of biofilm mass” value in data set [14] (S. aureus mature biofilm, 8 μM) is listed as “approximately 50%”.

As a reminder, the viability is a read-out of living cells in per cent, often relative to untreated cells. Read a low viability as a greater loss of cells. On to `CC(C)CO[C@@H]1C[C@@H](C(=O)N2C[C@H](OCCCNC(=N)N)C[C@H]2C(=O)N2C[C@H](OCCCNC(=N)N)C[C@H]2C(=O)N2C[C@H](OCC(C)C)C[C@H]2C(=O)N2C[C@H](OCCCNC(=N)N)C[C@H]2C(=O)N2C[C@H](OCCCNC(=N)N)C[C@H]2C(=O)N2C[C@H](OCC(C)C)C[C@H]2C(=O)N2C[C@H](OCCCNC(=N)N)C[C@H]2C(=O)N2C[C@H](OCCCNC(=N)N)C[C@H]2C(=O)N2C[C@H](OCC(C)C)C[C@H]2C(=O)N2C[C@H](OCCCNC(=N)N)C[C@H]2C(=O)N2C[C@H](OCCCNC(=N)N)C[C@H]2C(=O)N2C[C@H](OCC(C)C)C[C@H]2C(N)=O)N(C(=O)CN)C1` [Example P14LRR] (H-G[Hyp](Isobutyl)[Hyp](Propyl(3-guanidino))[Hyp](Propyl(3-guanidino))[Hyp](Isobutyl)[Hyp](Propyl(3-guanidino))[Hyp](Propyl(3-guanidino))[Hyp](Isobutyl)[Hyp](Propyl(3-guanidino))[Hyp](Propyl(3-guanidino))[Hyp](Isobutyl)[Hyp](Propyl(3-guanidino))[Hyp](Propyl(3-guanidino))[Hyp](Isobutyl)-NH2; N-terminus assumed), for which the “clearance of intracellular bacteria” value in [22] is “neither kanamycin nor P14LRR is capable of effectively clearing intracellular bacteria”. For the same compound, the “inhibition of the LAL enzyme” value in data set [4] is 71.2%±5. Also, the “decrease of IL-6 levels” value in data set [5] is given as 81.92%±0.78. Further, the “decrease of TNF-α levels” value in data set [6] was 68.4%±5.43. The “reduction of biofilm mass” value in [23] is 30%. Further, in data set [24], the disruption of biofilm result was “ineffective”. Further, the “disruption of biofilm mass” value in data set [14] (S. aureus mature (24 hour) biofilm, 1 μM) is “not effective”; in [14] (S. aureus mature biofilm, 8 μM), “not effective”; in [25] it was “approximately 50%”. Further, the MIC in [26] was 32 µM (≈ 83.8 µg/mL); in data set [27], 16 µM (≈ 41.9 µg/mL); in data set [28], 8 µM (≈ 20.9 µg/mL); in data set [29], 8 µM (≈ 20.9 µg/mL); in data set [30] it was 16 µM (≈ 41.9 µg/mL). Also, the viability at 72 h, 50 µM in data set [31] is > 90%.

In the case of `CC(=O)NC[C@H]1CN(c2ccc(N3CCOCC3)c(F)c2)C(=O)O1` [linezolid], the “disruption of biofilm mass” value in data set [14] (S. aureus mature biofilm, 8 μM) is “approximately 50%”.
